According to article PMC8062543 (Scientific Reports, 2021):
Blank lines part the entries; values can stand above or below the molecule they belong to.

Columns and labels:
[1] = biological target: T1, MtmGDH (Methylotuvimicrobium alcaliphilum, UniProt G4T0V2); assay: biochemical; conditions: read-out: % of control remaining; for remaining activity at 1000 µM: 1 mM; for remaining activity at 5000 µM: 5 mM
T1 construct: gene gdhI; full ORF, N-terminal His6 kept, E. coli Rosetta (DE3), pET28
T1 sequence (G4T0V2 1-271): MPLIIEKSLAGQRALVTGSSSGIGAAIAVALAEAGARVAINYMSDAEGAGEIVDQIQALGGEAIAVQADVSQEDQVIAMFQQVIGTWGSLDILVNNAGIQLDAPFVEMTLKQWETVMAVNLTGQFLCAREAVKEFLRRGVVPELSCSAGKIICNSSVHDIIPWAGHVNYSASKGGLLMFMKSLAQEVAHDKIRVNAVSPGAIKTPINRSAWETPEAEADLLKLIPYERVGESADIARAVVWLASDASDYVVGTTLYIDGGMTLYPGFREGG
Method: GDH activity assay The activity of GDH from Mtm. alcaliphilum was measured by recording the rate of NAD^+ or NADP^+ reduction at 30 °C. 1 mL of the reaction mixture routinely contained 50 mM Glycine–NaOH buffer, pH 10.0; 0.3 mM NAD(P)^+ and ~ 1 μg of GDH. The reaction was started with 200 mM D-glucose. The activity of Mb. luteus GDH was measured using 20 mM D-glucose in 50 mM Tris–HCl, pH 8.5. […] The effect of pH on the activity was studied using the following buffers (50 mM): Glycine–NaOH (pH 9.0–10.5), CHES-NaOH (pH 8.5–10.0), Tris–HCl (pH 7.5–9.0), and MES-NaOH (pH 5.0–7.0). KCl, NH4Cl or NaCl at a final concentration of 50 mM were added to test the effect of monovalent ions on the enzyme activity. The effects of divalent metals were assessed using MgCl2, MnCl2, [compound left out], CuCl2, CdCl2, NiCl2 or ZnCl2 at a final concentration of 1 mM. Glucose-6-phosphate, glucose-1-phosphate, fructose-6-phosphate, fructose-1,6-bisphosphate (5 mM), pyruvate, PEP, oxaloacetate, lactate, malate, isocitrate, citrate, succinate, serine, α-ketoglutarate, ATP, ADP, AMP and PPi (1 mM) were examined as potential inhibitors or activators. To determine the optimal temperature for enzyme activity, the reaction was carried out in a temperature range of 10–70 °C.

[2] = biological target: T2, MtmGntK (Methylotuvimicrobium alcaliphilum, UniProt G4T089); assay: biochemical; set-up: recombinant gluconate kinase activity, coupled to 6-phosphogluconate dehydrogenase, NADPH at 340 nm, effect of added metabolite; conditions: read-out: % of control remaining; for remaining activity at 5000 µM: 5 mM; for remaining activity at 1000 µM: 1 mM
T2 construct: gene gntK; C-terminal His6, E. coli Rosetta (DE3), pET30; ~20 kDa, monomer
T2 sequence (G4T089 1-181): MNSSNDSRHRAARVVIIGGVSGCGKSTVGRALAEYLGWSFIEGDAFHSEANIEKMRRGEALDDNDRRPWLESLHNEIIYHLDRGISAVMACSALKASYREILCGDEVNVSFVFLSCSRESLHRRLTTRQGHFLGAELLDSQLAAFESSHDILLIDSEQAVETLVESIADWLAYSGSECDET
Method: GntK activity assay The activity of GntK was measured in the reaction mixture containing 50 mM Tris–HCl buffer, pH 9.0; 8 mM MgCl2; 6 mM gluconate; 5 mM ATP; 0.3 mM NADP^+; 5U 6-phosphogluconate dehydrogenase (6PGDH, Sigma-Aldrich) as a coupling enzyme and ~ 15 µg GntK. The activity of Mb. luteus GntK was assayed in 50 mM Tris–HCl buffer (pH 8.0). The reaction was started with 6 mM sodium gluconate. To study the effect of pH, the following buffers were used (50 mM): Carbonate (pH 9.0–10.5), TAPS-NaOH (pH 8.0–9.0), Tris–HCl (pH 7.5–9.0), K-phosphate (pH 7.0–8.0), MES-NaOH (pH 5.0–6.0) or citrate (pH 4.0–5.0). […] The NAD^+/NADP^+ reduction rates were measured at 340 nm with a UV-1700 spectrophotometer (Shimadzu). The apparent Km and Vmax values were calculated using Sigma Plot (version 10). The exponentially grown cells were used to measure enzymatic activity in cell-free extracts.

[3] = biological target: T3, MbGDH (Methylobacter luteus, UniProt Z9JUG8QEO0); assay: NAD(P)H formation at […] nm; format: biochemical; conditions: inhibitor; 10 mM in results (5 mM in methods); pH 8.5 Tris-HCl, 20 mM D-glucose
T3 construct: gene gdh; full ORF, N-terminal His6 (pET28Ub-shHis)

[4] = biological target: T4, MtmGDH (Methylotuvimicrobium alcaliphilum, UniProt G4T0V2); assay: NAD(P)H formation at […] nm; format: biochemical; conditions: activator; pH 10.0 glycine-NaOH, 30 °C, 200 mM D-glucose
T4 construct: gene gdhI; full ORF, N-terminal His6 kept, E. coli Rosetta (DE3), pET28

[5] = system: T5, NC(=O)c1ccc[n+]([C@@H]2O[C@H](COP(=O)(O)OP(=O)(O)OC[C@H]3O[C@@H](n4cnc5c(N)ncnc54)[C@H](O)[C@@H]3O)[C@@H](O)[C@H]2O)c1; assay: purified protein; format: biochemical, Methylobacter luteus; conditions: pH 8.5 Tris-HCl, D-glucose
T5 construct: full ORF, N-terminal His6 (pET28Ub-shHis)

[6] = system: T6, NC(=O)c1ccc[n+]([C@@H]2O[C@H](COP(=O)(O)OP(=O)(O)OC[C@H]3O[C@@H](n4cnc5c(N)ncnc54)[C@H](OP(=O)(O)O)[C@@H]3O)[C@@H](O)[C@H]2O)c1; assay: purified protein; format: biochemical, Methylobacter luteus; conditions: pH 8.5 Tris-HCl, D-glucose
T6 construct: full ORF, N-terminal His6 (pET28Ub-shHis)

[7] = biological target: glucose dehydrogenase (GDH) from Methylobacter luteus IMV-B-3098 (Methylobacter luteus IMV-B-3098); assay: SEC; gel filtration on XK 16/100 Superdex 200, 0.02 M Tris-HCl pH 7.0 with 0.5 M NaCl, calibrated with protein markers; GDHs with the cut-off His-tag
[8] = biological target: glucose dehydrogenase (GDH) from Methylotuvimicrobium alcaliphilum 20Z (Methylotuvimicrobium alcaliphilum 20Z); assay: as above
[9] = substrate: Nc1ncnc2c1ncn2[C@@H]1O[C@H](COP(=O)(O)OP(=O)(O)OP(=O)(O)O)[C@@H](O)[C@H]1O; assay: purified protein; format: biochemical, Methylotuvimicrobium alcaliphilum; conditions: pH 9.0 Tris-HCl, 8 mM MgCl2, 6 mM gluconate, Hill n = 1.6
[10] = substrate: O=C(O)[C@H](O)[C@@H](O)[C@H](O)[C@H](O)CO; assay: purified protein; format: biochemical, Methylotuvimicrobium alcaliphilum; conditions: pH 9.0 Tris-HCl, 8 mM MgCl2, 5 mM ATP
[11] = substrate: NC(=O)c1ccc[n+]([C@@H]2O[C@H](COP(=O)(O)OP(=O)(O)OC[C@H]3O[C@@H](n4cnc5c(N)ncnc54)[C@H](O)[C@@H]3O)[C@@H](O)[C@H]2O)c1; assay: purified protein; format: biochemical, Methylotuvimicrobium alcaliphilum; conditions: pH 10.0 glycine-NaOH, 30 °C, 200 mM D-glucose
[12] = substrate: NC(=O)c1ccc[n+]([C@@H]2O[C@H](COP(=O)(O)OP(=O)(O)OC[C@H]3O[C@@H](n4cnc5c(N)ncnc54)[C@H](OP(=O)(O)O)[C@@H]3O)[C@@H](O)[C@H]2O)c1; assay: purified protein; format: biochemical, Methylotuvimicrobium alcaliphilum; conditions: pH 10.0 glycine-NaOH, 30 °C, 200 mM D-glucose

T3 sequence (Z9JUG8QEO0 1-271 limits assumed): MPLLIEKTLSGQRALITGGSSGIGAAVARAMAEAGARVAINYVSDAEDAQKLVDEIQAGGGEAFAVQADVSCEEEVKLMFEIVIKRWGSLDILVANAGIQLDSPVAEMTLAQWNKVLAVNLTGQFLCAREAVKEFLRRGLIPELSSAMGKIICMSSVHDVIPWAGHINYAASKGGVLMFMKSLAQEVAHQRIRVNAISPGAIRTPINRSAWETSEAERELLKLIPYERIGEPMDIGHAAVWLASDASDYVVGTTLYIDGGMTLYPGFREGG

Molecule: Nc1ncnc2c1ncn2[C@@H]1O[C@H](COP(=O)(O)OP(=O)(O)O)[C@@H](O)[C@H]1O [ADP]
remaining activity at 1000 µM [1]: 87 ± 1% | remaining activity at 5000 µM [2]: 71 ± 1%

Molecule: Nc1ncnc2c1ncn2[C@@H]1O[C@H](COP(=O)(O)O)[C@@H](O)[C@H]1O [AMP]
remaining activity at 1000 µM [1]: 109 ± 1% | remaining activity at 4000 µM ([2]; 4 mM): 98 ± 1%

Molecule: Nc1ncnc2c1ncn2[C@@H]1O[C@H](COP(=O)(O)OP(=O)(O)OP(=O)(O)O)[C@@H](O)[C@H]1O [ATP]
remaining activity at 1000 µM [1]: 93 ± 2%

Molecule: O=C(O)CC(O)(CC(=O)O)C(=O)O [Citrate]
remaining activity at 1000 µM [1]: 119 ± 1%

Molecule: O=P(O)(O)OC[C@H]1O[C@@](O)(COP(=O)(O)O)[C@@H](O)[C@@H]1O [Fructose-1,6-bisphosphate]
remaining activity at 5000 µM [1]: 103 ± 1%

Molecule: O=C(CO)[C@@H](O)[C@H](O)[C@H](O)COP(=O)(O)O [Fructose-6-phosphate]
remaining activity at 5000 µM [1]: 101 ± 1%

Molecule: O=P(O)(O)O[C@H]1O[C@H](CO)[C@@H](O)[C@H](O)[C@H]1O [Glucose 1-Phosphate]
remaining activity at 5000 µM [2]: 96 ± 2%

Molecule: O=P(O)(O)O[C@H]1O[C@H](CO)[C@@H](O)[C@H](O)[C@H]1O [Glucose-1-phosphate]
remaining activity at 5000 µM [1]: 103 ± 1%

Molecule: CC(O)C(=O)O (stereo not drawn) [Lactate]
remaining activity at 1000 µM [1]: 116 ± 1%

Molecule: O=C(O)CC(O)C(=O)O (stereo not drawn) [Malate]
remaining activity at 1000 µM [1]: 95 ± 5%

Molecule: MbGDH (Methylobacter luteus)
Km [5]: 0.12 ± 0.02 mM | kcat [5]: 3 min⁻¹ | Km [6]: 1.6 ± 0.3 mM | kcat [6]: 4 min⁻¹

B1: MtmGntK (Methylotuvimicrobium alcaliphilum 20Z) (protein)
chain: MNSSNDSRHRAARVVIIGGVSGCGKSTVGRALAEYLGWSFIEGDAFHSEANIEKMRRGEALDDNDRRPWLESLHNEIIYHLDRGISAVMACSALKASYREILCGDEVNVSFVFLSCSRESLHRRLTTRQGHFLGAELLDSQLAAFESSHDILLIDSEQAVETLVESIADWLAYSGSECDET
notes: C-terminal His6, E. coli Rosetta (DE3), pET30; ~20 kDa, monomer
K0.5 [9]: 1.3 ± 0.2 mM | kcat [9]: 0.52 min⁻¹ | K0.5 [10]: 0.6 ± 0.04 mM | kcat [10]: 0.26 min⁻¹

B2: MtmGDH without His6-tag (Methylotuvimicrobium alcaliphilum 20Z) (protein)
chain: MPLIIEKSLAGQRALVTGSSSGIGAAIAVALAEAGARVAINYMSDAEGAGEIVDQIQALGGEAIAVQADVSQEDQVIAMFQQVIGTWGSLDILVNNAGIQLDAPFVEMTLKQWETVMAVNLTGQFLCAREAVKEFLRRGVVPELSCSAGKIICNSSVHDIIPWAGHVNYSASKGGLLMFMKSLAQEVAHDKIRVNAVSPGAIKTPINRSAWETPEAEADLLKLIPYERVGESADIARAVVWLASDASDYVVGTTLYIDGGMTLYPGFREGG
notes: full ORF, His6 tag cut off with Usp2-His6 protease (not repurified afterwards), E. coli Rosetta (DE3), pET28Ub-shHis; homotetramer 112 kDa
Km [11]: 0.39 ± 0.06 mM | Km [12]: 0.34 ± 0.02 mM

B3: MtmGDH (Methylotuvimicrobium alcaliphilum 20Z) (protein)
chain: MPLIIEKSLAGQRALVTGSSSGIGAAIAVALAEAGARVAINYMSDAEGAGEIVDQIQALGGEAIAVQADVSQEDQVIAMFQQVIGTWGSLDILVNNAGIQLDAPFVEMTLKQWETVMAVNLTGQFLCAREAVKEFLRRGVVPELSCSAGKIICNSSVHDIIPWAGHVNYSASKGGLLMFMKSLAQEVAHDKIRVNAVSPGAIKTPINRSAWETPEAEADLLKLIPYERVGESADIARAVVWLASDASDYVVGTTLYIDGGMTLYPGFREGG
notes: full ORF, N-terminal His6 kept, E. coli Rosetta (DE3), pET28
Km [11]: 0.36 ± 0.02 mM | kcat [11]: 10.6 min⁻¹ | Km [12]: 0.14 ± 0.01 mM | kcat [12]: 0.35 min⁻¹

Second part, the molecule after the results:

remaining activity at 1000 µM [1]: 107 ± 3% | remaining activity at 1000 µM [2]: 101 ± 1%
Molecule: O=C(O)CC(=O)C(=O)O [Oxaloacetate]

remaining activity at 1000 µM [1]: 94% | remaining activity at 5000 µM [2]: 84 ± 1%
Molecule: C=C(OP(=O)(O)O)C(=O)O [Phosphoenolpyruvate]

remaining activity at 1000 µM [1]: 96 ± 1% | remaining activity at 3000 µM ([2]; 3 mM): 95 ± 2%
Molecule: CC(=O)C(=O)O [Pyruvate]

remaining activity at 1000 µM [1]: 108 ± 3%
Molecule: N[C@@H](CO)C(=O)O [Serine]

remaining activity at 1000 µM [1]: 99 ± 1%
Molecule: O=C(O)CCC(=O)O [Succinate]

% decrease of activity at 10 mM [3]: 40% | remaining activity at 5000 µM [2]: 96 ± 1%
Molecule: O=P(O)(O)OC[C@H]1OC(O)[C@H](O)[C@@H](O)[C@@H]1O (stereo partly drawn) [glucose-6-phosphate]

% increase of activity at 1 mM [4]: 40% | remaining activity at 1000 µM [1]: 140 ± 4%
Molecule: O=C(O)C[C@H](C(=O)O)[C@@H](O)C(=O)O [isocitrate]

remaining activity at 1000 µM [1]: 104 ± 1% | remaining activity at 1000 µM [2]: 90 ± 2%
Molecule: O=C(O)CCC(=O)C(=O)O [α-Ketoglutarate]

stoichiometry N [7]: 4
Molecule: glucose dehydrogenase (GDH) from Methylobacter luteus IMV-B-3098 (enzyme)

stoichiometry N [8]: 4
Molecule: glucose dehydrogenase (GDH) from Methylotuvimicrobium alcaliphilum 20Z (enzyme)
